How the values were obtained:
[1] = tested on: Calu-6; experiment: Tumor cell viability (TABLE 1); format: cell-based; details: Homo sapiens, read-out: EC50 (50% reduction in cell viability); Calu-6 (Non-Small Cell Lung); serum-free conditions, 48 hour treatment; mean ± SEM
[2] = tested on: NCI-H226; experiment: Tumor cell viability (TABLE 1); format: cell-based; details: Homo sapiens, read-out: EC50 (50% reduction in cell viability); NCI-H226 (Non-Small Cell Lung); serum-free conditions, 48 hour treatment; mean ± SEM
[3] = tested on: A549/ATCC; experiment: Tumor cell viability (TABLE 1); format: cell-based; details: Homo sapiens, read-out: EC50 (50% reduction in cell viability); A549/ATCC (Non-Small Cell Lung); serum-free conditions, 48 hour treatment; mean ± SEM
[4] = tested on: HOP-62; experiment: Tumor cell viability (TABLE 1); format: cell-based; details: Homo sapiens, read-out: EC50 (50% reduction in cell viability); HOP-62 (Non-Small Cell Lung); serum-free conditions, 48 hour treatment; mean ± SEM
[5] = tested on: NCI-H23; experiment: Tumor cell viability (TABLE 1); format: cell-based; details: Homo sapiens, read-out: EC50 (50% reduction in cell viability); NCI-H23 (Non-Small Cell Lung); serum-free conditions, 48 hour treatment; mean ± SEM
[6] = tested on: COLO 205; experiment: Tumor cell viability (TABLE 1); format: cell-based; details: Homo sapiens, read-out: EC50 (50% reduction in cell viability); COLO 205 (Colorectal); serum-free conditions, 48 hour treatment; mean ± SEM
[7] = tested on: HCT-116; experiment: Tumor cell viability (TABLE 1); format: cell-based; details: Homo sapiens, read-out: EC50 (50% reduction in cell viability); HCT-116 (Colorectal); serum-free conditions, 48 hour treatment; mean ± SEM
[8] = tested on: MCF7; experiment: Tumor cell viability (TABLE 1); format: cell-based; details: Homo sapiens, read-out: EC50 (50% reduction in cell viability); MCF7 (Breast); serum-free conditions, 48 hour treatment; mean ± SEM
[9] = tested on: MDA-MB-436; experiment: Tumor cell viability (TABLE 1); format: cell-based; details: Homo sapiens, read-out: EC50 (50% reduction in cell viability); MDA-MB-436 (Breast); serum-free conditions, 48 hour treatment; mean ± SEM
[10] = tested on: BT-549; experiment: Tumor cell viability (TABLE 1); format: cell-based; details: Homo sapiens, read-out: EC50 (50% reduction in cell viability); BT-549 (Breast); serum-free conditions, 48 hour treatment; mean ± SEM
[11] = tested on: T47D; experiment: Tumor cell viability (TABLE 1); format: cell-based; details: Homo sapiens, read-out: EC50 (50% reduction in cell viability); T47D (Breast); serum-free conditions, 48 hour treatment
[12] = tested on: NCI/ADR-RES; experiment: Tumor cell viability (TABLE 1); format: cell-based; details: Homo sapiens, read-out: EC50 (50% reduction in cell viability); NCI/ADR-RES (Breast); serum-free conditions, 48 hour treatment
[13] = tested on: SF-268; experiment: Tumor cell viability (TABLE 1); format: cell-based; details: Homo sapiens, read-out: EC50 (50% reduction in cell viability); SF-268 (CNS); serum-free conditions, 48 hour treatment; mean ± SEM
[14] = tested on: U87MG; experiment: Tumor cell viability (TABLE 1); format: cell-based; details: Homo sapiens, U-87 MG, read-out: EC50 (50% reduction in cell viability); U87MG (Glioma); serum-free conditions, 48 hour treatment; mean ± SEM
[15] = tested on: MALME-3M; experiment: Tumor cell viability (TABLE 1); format: cell-based; details: Homo sapiens, read-out: EC50 (50% reduction in cell viability); MALME-3M (Melanoma); serum-free conditions, 48 hour treatment; mean ± SEM
[16] = tested on: OVCAR-8; experiment: Tumor cell viability (TABLE 1); format: cell-based; details: Homo sapiens, read-out: EC50 (50% reduction in cell viability); OVCAR-8 (Ovarian); serum-free conditions, 48 hour treatment; mean ± SEM
[17] = tested on: MiaPaCa; experiment: Tumor cell viability (TABLE 1); format: cell-based; details: Homo sapiens, MIA PaCa-2, read-out: EC50 (50% reduction in cell viability); MiaPaCa (Pancreas); serum-free conditions, 48 hour treatment; mean ± SEM
[18] = tested on: 786-0; experiment: Tumor cell viability (TABLE 1); format: cell-based; details: Homo sapiens, read-out: EC50 (50% reduction in cell viability); 786-0 (Renal); serum-free conditions, 48 hour treatment; mean ± SEM
[19] = tested on: SN12C; experiment: Tumor cell viability (TABLE 1); format: cell-based; details: Homo sapiens, read-out: EC50 (50% reduction in cell viability); SN12C (Renal); serum-free conditions, 48 hour treatment; mean ± SEM
[20] = tested on: SCLC xenograft; experiment: Small cell lung cancer xenograft tumor model; format: in vivo, murine
Text: (H146 and SCLC xenograft) from human-derived small cell lung cancer isolated from smokers and nonsmokers, defective for Rb/p53 gene function, and expresseive of moderately high levels of Bcl-2.

[21] = tested on: DoHH2 follicular lymphoma flank tumors; experiment: DoHH2 follicular lymphoma model; format: in vivo
[22] = tested on: RS11380; experiment: RS11380 model of B-cell follicular lymphoma; format: in vivo
[23] = tested on: PC3; experiment: PC3 derived murine model of prostate cancer; format: in vivo
[24] = tested on: A549 human non-small cell lung carcinoma cells; experiment: Paclitaxel combination on A549 cells; format: cell-based; details: A549 cells
[25] = tested on: PC-3 prostate carcinoma cells; experiment: Paclitaxel combination on PC-3 cells; format: cell-based
[26] = Combination therapy studies with cytotoxic agents; details: with etoposide, vincristine, modified CHOP, doxorubicin, rapamycin and Rituxin®
[27] = tested on: human tumor cell lines derived from small cell lung carcinomas and lymphoid malignancies of both T-cell and B-cell origin; details: small cell lung carcinoma and T-cell / B-cell lymphoid malignancy cell lines
[28] = established flank tumors, sustained period of time

In the case of `CN(C)CC[C@H](CSc1ccccc1)Nc1ccc(S(=O)(=O)NC(=O)c2ccc(N3CCN(Cc4ccccc4-c4ccc(Cl)cc4)CC3)cc2)cc1[N+](=O)[O-]` [EXAMPLE 2, N-(4-(4-((4′-chloro(1,1′-biphenyl)-2-yl)methyl)piperazin-1-yl)benzoyl)-4-(((1R)-3-(dimethylamino)-1-((phenylsulfanyl)methyl)propyl)amino)-3-nitrobenzenesulfonamide], the EC50 [1] is reported as 0.18 ± 0.07 µM, the EC50 [2] is reported as 2.6 ± 1.1 µM and the EC50 [3] is reported as 5.2 ± 0.2 µM. The EC50 [4] was 6.3 ± 6.7 µM, the EC50 [5] was 7.4 ± 0.6 µM and the EC50 [6] was 0.51 ± 0.07 µM. For the same compound, the EC50 [7] was 2.1 ± 1.8 µM, the EC50 [8] was 2 ± 0.8 µM and the EC50 [9] was 3.9 ± 2.6 µM. It also gave an EC50 [10] of 6.5 ± 2.3 µM, an EC50 [11] of over 10 µM and an EC50 [12] of over 10 µM. It also gave an EC50 [13] of 8.3 ± 0.4 µM, an EC50 [14] of 2.7 ± 1.8 µM and an EC50 [15] of 1.9 ± 0.8 µM. It also gave an EC50 [16] of 3.4 ± 0.8 µM, an EC50 [17] of 1.4 ± 0.6 µM and an EC50 [18] of 2.9 ± 0.1 µM. The EC50 [19] was 3.2 ± 0.2 µM, the anti-tumor activity ([20]; SCLC xenograft murine model) was “demonstrated anti-tumor activity” and the “anti-tumor activity compared with paclitaxel” value ([20]; paclitaxel near the maximum tolerated dose) was “equivalent to slightly better than paclitaxel”. The “anti-tumor activity compared with cisplatin and etoposide” value ([20]; small cell lung cancer xenograft tumor model) was “superior to cisplatin and etoposide”, the “tumor regression, combination with Rituxin®” value [21, 28] was “complete regression of a significant percentage of established DoHH2 follicular lymphoma flank tumors” and the “tumor regression, combination with rapamycin” value [21, 28] was “complete regression of a significant percentage of established DoHH2 follicular lymphoma flank tumors”. For the same compound, the tumor growth ([21]; model of follicular lymphoma (DOHH-2)) was “inhibited tumor growth”, the “activity in follicular lymphoma model” value [22] was “significant activity” and the “inhibition of tumor growth rate” value ([23]; PC3 derived murine model of prostate cancer) was 40-50%. The “therapeutic utility in prostate cancer model” value ([23]; mouse, in vivo) was “Therapeutic utility was also observed”, the “increase in efficacy of paclitaxel when administered with the compound” value [24] was “about 4.4 fold” and the “increase in efficacy of paclitaxel when administered with the compound” value [25] was 4.7 fold. The “effect on efficacy of cytotoxic agents during combination therapy” value [26] was “synergistically enhanced efficacy” and the “therapeutic utility against human tumor cell lines” value [27] was “displayed therapeutic utility”.

Source: US20050159427A1, “N-acylsulfonamide apoptosis promoters” (priority 2003, published 2005)
